Measured values as given in patent publication US4640922A, “3N-substituted 3,4-dihydropyrimidines as agents for treating disorders of cardiovascular system” (Suntory Limited, priority 1984, dated 1987).
Like-named read-outs stand apart in the source and are kept apart here.

Legend:
[1] = tested on: coronary artery (isolated heart); experiment: Coronary vascular dilative effect, isolated perfused guinea pig heart, Langendorff's method (perfusion pressure); conditions: 0.1 ml injected into coronary artery; isolated guinea pig heart, 37° C., 6 ml/minute
Description: The coronary vascular dilative effect of 3N-substituted 3,4-dihydropryrimidine derivatives was tested.
Heartly guinea pigs (weight 400-500 g) were clubbed dead and their hearts were immediately isolated. The hearts were perfused with Krebs-Henseleit solution bubbled with a mixture of 95% O2 +5% CO2 and maintained at 37° C. at a certain rate of 6 ml/minute according to Langendorff's method [J. Pharmacol. Methods 2, 143 (1979)]. The perfusion pressure was determined by a pressure transducer. Samples were prepared by dissolving 1 mg of a test compound in 1 ml of a mixture of dimethylsulfoxide and physiological saline (1:9) and diluting with physiological saline the solution to the predetermined concentration. 0.1 ml of the diluted solution was administered into the coronary artery via a rubber tube connected to an aorta cannula to obtain ED50 (μg/heart) data as shown in Table 1. The numbers of the compounds in the Table correspond respectively to those of the working examples described above.

[2] = tested on: vertebral artery; experiment: Blood flow and blood vessel resistance of vertebral artery in anesthetized dogs; assay type: in vivo, dog; conditions: Canis lupus familiaris, iv
Description: (§1) The pharmacological effects of the compounds of the present invention with respect to the blood flow and blood vessel resistance of vertebral artery and systemic blood pressure (average pressure) in anesthetized dogs. […] The first and second ribs were cut open to expose the left vertebral artery. A probe was attached to the origin of the artery and the blood flow was measured with an electromagnetic rheometer (Model MF-27, product of Nihon Koden K.K.) At the same time, continuous measurement of the following parameters was made: systemic blood pressure (average pressure) at the right femoral artery, the ECG in the second induction period, the heart beat with a tachometer driven by the R wave, and the blood vessel resistance determined by loading a multiplication/division unit (EO-601 G, product of Nihon Koden K.K.) with the average values of blood pressure and blood flow in the vertebral artery. All of these parameters were recorded simultaneously on a polygraph (RM-600, product of Nihon Koden, K.K.) All of the test compounds were injected through a cannula inserted into the femoral […].

[3] = tested on: systemic blood pressure; experiment: Systemic blood pressure (average pressure) in anesthetized dogs; assay type: in vivo, dog; conditions: Canis lupus familiaris, iv, read-out: Average blood pressure, percentage compared with control
Description: as §1

[4] = 0.001 mg/kg, % of value before administration, average ± standard error, read-out: Vertebral artery vessel resistance, percentage compared with control
[5] = % of value before administration, average ± standard error, read-out: Vertebral artery blood flow, percentage compared with control
[6] = % of value before administration, average ± standard error, read-out: Vertebral artery vessel resistance, percentage compared with control
[7] = read-out: Vertebral artery blood flow, percentage compared with control
[8] = read-out: Vertebral artery vessel resistance, percentage compared with control

CCOC(=O)N1C(C)=NC(C)=C(C(=O)OC)C1c1cccc([N+](=O)[O-])c1 (stereo not shown) [Compound 14]
Pharmacological data ED50 [1]: 1.1 μg/heart

COC(=O)C1=C(Cl)N=C(C)N(C(=O)OC)C1c1cccc([N+](=O)[O-])c1 (stereo not shown) [Compound 15]
Pharmacological data ED50 [1]: 2.8 μg/heart

CCOC(=O)N1C(C)=NC(Cl)=C(C(=O)OC)C1c1cccc([N+](=O)[O-])c1 (stereo not shown) [Compound 16]
Pharmacological data ED50 [1]: 10.0 μg/heart

CCOC(=O)C1=C(Cl)N=C(C)N(C(=O)OCC)C1c1ccc(SC)cc1 (stereo not shown) [Compound 18]
Pharmacological data ED50 [1]: 0.37 μg/heart

CCOC(=O)C1=C(C)N=C(C)N(C(=O)OCC)C1c1ccc(SC)cc1 (stereo not shown) [Compound 19]
Pharmacological data ED50 [1]: 0.58 μg/heart

CCOC(=O)C1=C(Cl)N=C(C)N(C(=O)OC)C1c1ccc(SC)cc1 (stereo not shown) [Compound 20]
Pharmacological data ED50 [1]: 0.22 μg/heart

CCOC(=O)C1=C(C)N=C(C)N(C(=O)OC)C1c1ccc(SC)cc1 (stereo not shown) [Compound 21]
Pharmacological data ED50 [1]: 1.0 μg/heart

COC(=O)C1=C(C)NC(C)=C(C(=O)OCCN(C)Cc2ccccc2)C1c1cccc([N+](=O)[O-])c1 (stereo not shown) [Nicardipine, reference compound]
response vs control in vivo at 0.001 mg/kg ([2]; 0.001 mg/kg, % of value before administration, average ± standard error, read-out: Vertebral artery blood flow, percentage compared with control): 123 ± 7%
response vs control in vivo at 0.001 mg/kg [2, 4]: 79 ± 4%
response vs control in vivo at 0.003 mg/kg [2, 5]: 147 ± 15%
response vs control in vivo at 0.003 mg/kg [2, 6]: 67 ± 7%
response vs control in vivo at 0.01 mg/kg [2, 5]: 183 ± 13%
response vs control in vivo at 0.01 mg/kg [2, 6]: 49 ± 3%
response vs control in vivo at 0.001 mg/kg ([3]; 0.001 mg/kg, % of value before administration, average ± standard error): 90 ± 1%
response vs control in vivo at 0.003 mg/kg ([3]; 0.003 mg/kg, % of value before administration, average ± standard error): 87 ± 2%
response vs control in vivo at 0.01 mg/kg ([3]; 0.01 mg/kg, % of value before administration, average ± standard error): 80 ± 2%

COC(=O)C1=C(C)NC(C)=C(C(=O)OC)C1c1ccccc1[N+](=O)[O-] [Nifedipine, reference compound]
response vs control in vivo at 0.0001 mg/kg [2, 7]: 114%
response vs control in vivo at 0.0003 mg/kg [2, 7]: 129%
response vs control in vivo at 0.001 mg/kg [2, 7]: 154%
response vs control in vivo at 0.0001 mg/kg ([2]; 0.0001 mg/kg, % of value before administration, read-out: Vertebral artery vessel resistance, percentage compared with control): 79%
response vs control in vivo at 0.0003 mg/kg ([2]; 0.0003 mg/kg, % of value before administration, average ± standard error, read-out: Vertebral artery vessel resistance, percentage compared with control): 67%
response vs control in vivo at 0.001 mg/kg [2, 4]: 57%
response vs control in vivo at 0.0001 mg/kg [3]: 94%
response vs control in vivo at 0.0003 mg/kg [3]: 94%
response vs control in vivo at 0.001 mg/kg [3]: 87%

COc1ccc(Cc2nccc3cc(OC)c(OC)cc23)cc1OC [Papaverine, reference compound]
response vs control in vivo at 0.1 mg/kg [2, 7]: 123 ± 4%
response vs control in vivo at 0.3 mg/kg [2, 7]: 151 ± 8%
response vs control in vivo at 1 mg/kg [2, 7]: 184 ± 14%
response vs control in vivo at 0.1 mg/kg [2, 8]: 78 ± 3%
response vs control in vivo at 0.3 mg/kg [2, 8]: 58 ± 3%
response vs control in vivo at 1 mg/kg [2, 8]: 43 ± 3%
response vs control in vivo at 0.1 mg/kg [3]: 93 ± 1%
response vs control in vivo at 0.3 mg/kg [3]: 83 ± 3%
response vs control in vivo at 1 mg/kg [3]: 73 ± 4%
